Measurements taken from patent US10092644B2, “Use of fluorinated cyclic dinucleotides as oral vaccine adjuvants” (BROCK UNIVERSITY, priority 2013, dated 2018).

How the values were obtained:
[1] = system: recombinant PsaA protein of S. pneumoniae; test: Intranasal immunization of mice with PsaA admixed with adjuvant; ELISA for PsaA-specific IgA and IgG isotypes; assay type: in vivo, BALB/c mice
Excerpt: Mice. Six to eight-week-old female BALB/c or C57BL/6 mice were purchased from Charles Rivers Laboratories (St. Constant, Quebec). The animals were housed under specific-pathogen-free conditions in a federally licensed small animal containment level 2 facility, and given free access to sterile water and certified mouse chow. The animals were maintained and used in accordance with the recommendations of the Canadian Council on Animal Care Guide to the Care and Use of Experimental Animals, and the experimental procedures were approved by the institutional animal care committee.
(§1) Intranasal or oral immunization in mice. For intranasal immunization, mice were lightly anesthetized under isofluorane. On day 0, 14 and 21, groups of mice (n=5) were inoculated with 50 μl of various vaccine preparations or controls as detailed in Examples 1-5. For oral immunization, various vaccine preparations or controls in 0.2 ml volume were administered by gavage via an 18-gauge feeding needle.
At day 28, blood and mucosal samples (fecal pellets or/and vaginal wash) were collected as described elsewhere (Patel G B, Zhou H, Ponce A, Chen W (2007). Mucosal and systemic immune responses by intranasal immunization using archaeal lipid-adjuvanted vaccines. Vaccine 25: 8622-8636.). In some experiments, nasal wash samples were also collected at the end of experiment. For both the vaginal and nasal wash, the volume of the lavage fluid recovered from each mouse was recorded. Since the recovery of lavage volumes among different mice in our study were very similar (about 90%), the small variation among individual samples was not adjusted. All samples were stored at −20° C. until assay.
Vaginal wash samples were collected by slowly injecting and withdrawing (3-4 times) 50 μl PBS (pH 7.2) into the vagina of conscious mice, using a P100 pipette. The volume of the vaginal lavage fluid recovered from each mouse was recorded.
Enzyme-linked immunosorbent assay (ELISA) for PsaA-specific IgA and IgG isotypes. Levels of PsaA-specific antibodies in serum and mucosal samples were measured by an enzyme-linked immunosorbent assay (ELISA) modified from a previously described procedure (Yan H, Kuo Lee R, Tram K, Qiu H, Zhang J, Patel G B, Chen W. 3′,5′-Cyclic diguanylic acid elicits mucosal immunity against bacterial infection. Biochemical and Biophysical Research Communications, 2009; 387(3):581-4.). Briefly, 96-well Immunolon 2^R microplates (Thermo Electron Corporation, Milford, Mass.) were coated with 0.5 μg PsaA/well in 100 μl of 0.015 M sodium carbonate and 0.035 M sodium bicarbonate buffer (pH 9.6) at 4° C. overnight. All the subsequent incubations were carried out at room temperature. The wells were blocked by incubation with 5% bovine serum in PBS for 1 h, and then rinsed three times with PBS-0.05% Tween 20. Duplicates of 100 μl pre-diluted samples were added to the wells. Sample dilutions were as follows: 1:2 for fecal extracts and nasal washes, 1:2000 for serum IgG1, 1:500 for serum IgG2a and 1:50 for serum IgA. After the plates were incubated for 3 h, alkaline phosphatase-conjugated goat antibodies specific for mouse IgA, IgG1 and IgG2a (all from Caltag Laboratories, Burlingame, Calif.) were added and incubated for 1 h. Color reactions were developed by the addition of p-nitrophenyl phosphate (pNPP) substrate (KPL, Inc., Gaithersburg, Md.), and optical density was measured at 405 nm with an automated ELISA plate reader (Multiskan Ascent, Thermo Labsystems, Vantaa, Finland). Pooled samples collected from mice that had been intranasally immunized with the PsaA+CT or from the naïve mice were used as positive or negative controls respectively.
To determine if 2′-F-c-di-GMP can elicit mucosal immune responses to microbial (bacterial and viral) antigens, groups of BALB/c mice were intranasally (i.n.) immunized with 2 μg recombinant PsaA protein of S. pneumoniae admixed with 2.5 μg 2′-F-c-di-GMP, 2.5 μg c-di-GMP, or 10 μg c-di-GMP at day 0, 14 and 21. […]

S. pneumoniae = test: Mouse S. pneumoniae nasopharyngeal colonization model after intranasal immunization; assay type: in vivo, mice
Protocol: as §1
Intranasal challenge of mice with S. pneumoniae. Fresh inocula were prepared for each experiment from a frozen stock of S. pneumoniae (type 14). […] The actual inoculum concentrations were determined by plating 10-fold serial dilutions on chocolate agar. Inoculated mice were sacrificed 3 days later and the nasal cavity was lavaged with 0.5 ml lavage fluid and aliquots (100 μl) of 10-fold serial dilutions of the lavage fluids were cultured, in duplicates, on chocolate agar plates to quantify the number of viable organisms.
Next, it was determined if the mucosal immune responses induced by the 2′-F-c-di-GMP adjuvanted vaccine are protective against mucosal infections in the well-established mouse S. pneumoniae colonization model. […] Mice were sacrificed 3 days after challenge, and the nasopharyngeal tract was lavaged and bacterial numbers in the nasal wash were determined.

[2] = system: H. pylori cell-free sonicate extract (HPCE); set-up: species or system C57BL/6 mice; conditions: mouse, in vivo, po
[3] = system: splenocytes stimulated by HPCE; conditions: mouse, in vivo, po
H. pylori SS1 = test: Mouse model of H. pylori gastric colonization after oral immunization; assay type: in vivo, mice
Listeria flagellin = test: Oral immunization with Listeria flagellin admixed with adjuvant; ELISA for flagellin-specific antibodies; assay type: in vivo, BALB/c mice; conditions: day 35
C. difficile flagellin = test: Oral immunization with C. difficile flagellin admixed with adjuvant; ELISA for flagellin-specific antibodies; assay type: in vivo, BALB/c mice; conditions: day 35
[4] = system: pneumococcal surface adhesion A (Psa); conditions: mice, intranasally, Psa together with c-di-GMP (Yan et al. 2009); cited from earlier work
[5] = i.n. 2 μg PsaA admixed with 2.5 μg adjuvant at day 0, 14 and 21, samples day 28, FIG. 1
[6] = i.n. with 2 μg PsaA, comparator 2.5 μg or 10 μg c-di-GMP
[7] = oral 50 μg Listeria flagellin + 75 μg adjuvant
[8] = oral 30 μg C. difficile flagellin + 75 μg adjuvant

Molecule: 2′-F-c-di-GMP
- PsaA-specific IgA in feces [1, 5]: high level
- PsaA-specific IgA in nasal wash [1, 5]: high level
- PsaA-specific IgA in serum [1, 5]: high level
- PsaA-specific serum IgG1 level [1, 5]: high level
- PsaA-specific serum IgG2a level [1, 5]: high level
- IgG2a response in the serum compared to parental c-di-GMP [1, 6]: stronger
- antigen-specific IgA response in feces compared to parental c-di-GMP [1, 6]: stronger
- antigen-specific IgA response in vaginal washings compared to parental c-di-GMP [1, 6]: stronger
- magnitude of reduction of S. pneumoniae colonization relative to PsaA+CT immunized mice (S. pneumoniae; PsaA+2′-F-c-di-GMP i.n., PsaA+CT data from Yan et al. 2009): comparable
- nasopharyngeal colonization of S. pneumoniae compared to sham-immunized mice (S. pneumoniae; i.n. immunization, i.n. challenge 4.55×10^6 CFU at day 35, nasal wash bacterial numbers 3 days after challenge, P<0.05 for adjuvanted group, FIG. 2): significantly reduced colonization
- IgG2a response in the serum compared with sham-immunized mice [2]: substantially higher
- antigen-specific IgA level in feces [2]: substantial amount
- antigen-specific IgA level in serum [2]: substantial amount
- antigen-specific IgA response in feces compared with sham-immunized mice [2]: substantially higher
- antigen-specific serum IgG1 level [2]: substantial amount
- antigen-specific serum IgG2a level [2]: substantial amount
- IFN-γ produced by splenocytes compared to cells from CT-immunized mice [3]: even higher
- IFN-γ produced by splenocytes compared to sham-immunized mice [3]: substantially higher
- IL-2 produced by splenocytes compared to sham-immunized mice [3]: substantially higher
- IL-17 produced by splenocytes compared to sham-immunized mice [3]: substantially higher
- magnitude of reduction of H. pylori colonization relative to HPCE adjuvanted with CT (H. pylori SS1; HPCE+2′-F-c-di-GMP vs HPCE+CT, oral): comparable
- bacterial burdens in the gastric mucosa compared to sham (PBS)-immunized mice (H. pylori SS1; both low or high doses of HPCE + 2′-F-c-di-GMP, oral): significantly reduced bacterial burdens
- gastric colonization of H. pylori compared to sham-immunized mice (H. pylori SS1; oral immunization, oral challenge 10^8 CFU H. pylori SS1 three times from day 35, stomach 6 weeks after first challenge, P<0.05 for adjuvanted group, FIG. 5): significantly reduced colonization
- IgG1 response in the serum compared with sham-immunized mice (Listeria flagellin; [7]): substantially higher
- IgG2a response in the serum compared with sham-immunized mice (Listeria flagellin; [7]): substantially higher
- antigen-specific IgA response in feces compared with sham-immunized mice (Listeria flagellin; [7]): substantially higher
- Listeria flagellin-specific IgA in feces (Listeria flagellin; oral 50 μg Listeria flagellin admixed with 75 μg adjuvant day 0, 14, 21, FIG. 6): small amount
- IgG1 response in the serum compared with sham-immunized mice (C. difficile flagellin; [8]): substantially higher
- IgG2a response in the serum compared with sham-immunized mice (C. difficile flagellin; [8]): substantially higher
- antigen-specific IgA response in feces compared with sham-immunized mice (C. difficile flagellin; [8]): substantially higher
- C. difficile flagellin-specific IgA in feces (C. difficile flagellin; oral 30 μg C. difficile flagellin admixed with 75 μg adjuvant day 0, 14, 21, FIG. 6): substantial amount

Molecule: Nc1nc2c(ncn2C2OC3COP(=O)(O)OC4C(COP(=O)(O)OC3C2O)OC(n2cnc3c(=O)[nH]c(N)nc32)C4O)c(=O)[nH]1 (centres unmarked) [c-di-GMP, 3′,5′-cyclic diguanylic acid]
- antigen specific antibody response [4]: enhanced
